Consider 17 molecules from ChEMBL document CHEMBL2440041, “5-Deazaflavin derivatives as inhibitors of p53 ubiquitination by HDM2” (Bioorg Med Chem, 2013).

The structures appear in SMILES notation. Where only a bound is given, the exact number is not on record here.

The target of the assay is E3 ubiquitin-protein ligase Mdm2 (Homo sapiens, UniProt Q00987).
Chain of E3 ubiquitin-protein ligase Mdm2 (Q00987 whole entry): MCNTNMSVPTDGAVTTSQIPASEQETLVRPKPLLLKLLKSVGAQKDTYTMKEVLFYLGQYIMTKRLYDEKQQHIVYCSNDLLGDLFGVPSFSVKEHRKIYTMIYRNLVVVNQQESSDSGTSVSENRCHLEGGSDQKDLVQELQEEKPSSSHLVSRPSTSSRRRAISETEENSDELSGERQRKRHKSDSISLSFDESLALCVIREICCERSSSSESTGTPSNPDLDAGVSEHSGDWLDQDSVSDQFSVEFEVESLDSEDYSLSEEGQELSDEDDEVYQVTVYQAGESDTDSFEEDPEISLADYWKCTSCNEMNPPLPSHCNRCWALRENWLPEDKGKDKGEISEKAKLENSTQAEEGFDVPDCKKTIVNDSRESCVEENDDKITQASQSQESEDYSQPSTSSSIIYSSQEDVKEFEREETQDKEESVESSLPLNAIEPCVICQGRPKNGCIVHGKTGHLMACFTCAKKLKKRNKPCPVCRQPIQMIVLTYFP
Description: Inhibition of GST-tagged HDM2 (unknown origin) assessed as p53 ubiquitination by Western blot analysis
Regarding `O=c1nc2n(-c3ccccc3F)c3ccc(Cl)cc3cc-2c(=O)[nH]1`, the IC50 is greater than 100 µM.

In the case of `O=c1nc2n(-c3ccccc3F)c3c(C(F)(F)F)cccc3cc-2c(=O)[nH]1`, the midpoint of inhibition, the IC50, lay at 19.6 µM.

For the molecule `O=c1nc2n(-c3ccc(Cl)cc3)c3cccc(Cl)c3cc-2c(=O)[nH]1`, the half-inhibitory concentration (IC50) was greater than 100 µM.

For `O=c1nc2n(-c3ccccc3F)c3c([N+](=O)[O-])cccc3cc-2c(=O)[nH]1`, the half-inhibitory concentration (IC50) was greater than 100 µM.

`O=c1nc2n(-c3ccc(F)cc3)c3c(C(F)(F)F)cccc3cc-2c(=O)[nH]1`: the concentration for half-maximal inhibition (IC50) amounted to 13.1 µM.

`O=c1nc2n(-c3ccccc3F)c3cc(C(F)(F)F)ccc3cc-2c(=O)[nH]1` displayed an IC50 greater than 100 µM.

In turn, `O=c1nc2n(-c3cccc(Cl)c3)c3c(Cl)cccc3cc-2c(=O)[nH]1` had a concentration for half-maximal inhibition (IC50) greater than 100 µM.

The molecule `O=c1nc2n(-c3ccc(Cl)cc3)c3ccc(C(F)(F)F)cc3cc-2c(=O)[nH]1` showed a half-maximal inhibitory concentration (IC50) greater than 100 µM.

`O=c1nc2n(Cc3ccccc3)c3c(C(F)(F)F)cccc3cc-2c(=O)[nH]1` gave an IC50 greater than 100 µM.

As to `O=c1nc2n(-c3ccc(Cl)cc3)c3cccc(C(F)(F)F)c3cc-2c(=O)[nH]1`, the 50% inhibitory concentration (IC50) is greater than 100 µM.

The molecule `O=c1nc2n(-c3ccc(Cl)cc3)c3cc(C(F)(F)F)ccc3cc-2c(=O)[nH]1` returned an IC50 greater than 100 µM.

`O=c1nc2n(-c3ccc(Cl)cc3)c3ccc([N+](=O)[O-])cc3cc-2c(=O)[nH]1` had an IC50 greater than 75 µM.

In turn, `O=c1nc2n(-c3cccc(F)c3)c3c(Cl)cccc3cc-2c(=O)[nH]1` had a half-maximal inhibitory concentration (IC50) greater than 100 µM.

`Cc1ccc2cc3c(=O)[nH]c(=O)nc-3n(-c3ccc(Cl)cc3)c2c1` returned an IC50 greater than 100 µM.

In turn, `O=c1nc2n(-c3ccc(Cl)cc3)c3c([N+](=O)[O-])cccc3cc-2c(=O)[nH]1` registered a half-inhibitory concentration (IC50) greater than 50 µM.

Turning to `O=c1nc2n(-c3ccccc3)c3c(Cl)cccc3cc-2c(=O)[nH]1`, the IC50 is greater than 100 µM.

For `O=c1nc2n(-c3ccccc3)c3c(Br)cccc3cc-2c(=O)[nH]1`, the IC50 is greater than 100 µM.

In general, IC50 refers to the point on the concentration scale where inhibition reaches its midpoint. A low value points to inhibition by little substance.
